From patent publication US20230339851A1, “CXCR6 SULFONAMIDE COMPOUNDS” (CHEMOCENTRYX, INC., priority 2022, published 2023) come the findings set out here.

The term IC50 denotes the concentration that gives 50% inhibition.

The target of the assay is T1, human CXCR6 (Homo sapiens, UniProt O00574).
T1 construct: expressed in transfected cells
The assay is described as follows: Radioligand Binding Assay (125I-CXCL16 displacement). Particulars: L1.2 cells stably transfected with human CXCR6 cDNA, 0.1 nM 125I-CXCL16, 4° C., three-hour incubation; read-out: Potency (IC50). The procedure, abridged: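 Displacement of 0.1 nM 125I-CXCL16 from human CXCR6 stably expressed in L1.2 cells was measured after a 3 h, 4 °C incubation in HBSS with 0.1% BSA. Filter-bound cpm were counted, and IC50 values came from a 3-parameter nonlinear fit.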

T1 sequence (O00574 whole entry): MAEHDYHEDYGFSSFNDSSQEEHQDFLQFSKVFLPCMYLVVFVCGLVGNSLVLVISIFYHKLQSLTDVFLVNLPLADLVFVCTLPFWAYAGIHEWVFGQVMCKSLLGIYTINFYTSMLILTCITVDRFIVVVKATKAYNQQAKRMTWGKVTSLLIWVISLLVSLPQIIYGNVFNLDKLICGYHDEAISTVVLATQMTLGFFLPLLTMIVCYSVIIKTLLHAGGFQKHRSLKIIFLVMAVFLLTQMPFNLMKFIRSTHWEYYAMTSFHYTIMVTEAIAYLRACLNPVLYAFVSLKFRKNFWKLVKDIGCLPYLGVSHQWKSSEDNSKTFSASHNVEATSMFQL

Regarding `CCOc1cc(NC(=O)[C@@H](NC(=O)CC)C(C)C)ccc1S(=O)(=O)Nc1cccc(OC(F)(F)F)c1` [Example 1.241], the IC50 is ≤ 0.2 µM.

`COc1cc(NC(=O)c2ccnn2C)ccc1S(=O)(=O)Nc1ccc(C)c(C(F)(F)F)c1` [Example 1.552]: the concentration for half-maximal inhibition (IC50) was ≤ 0.2 µM.

For the compound `CCOc1cc(NC(=O)C2COC[C@H]2O)ccc1S(=O)(=O)Nc1cccc(OC(F)(F)F)c1` (mixture of isomers) [Example 1.518], the IC50 lay in the range of 0.2 to 0.75 µM.

On to `CCOc1cc(NC(=O)[C@H]2CC=CC[C@H]2CO)ccc1S(=O)(=O)Nc1cccc(OC(F)(F)F)c1` [Example 1.539], for which the IC50 lay in the range of 0.2 to 0.75 µM.

In the case of `Cc1cc(NC(=O)c2ccnnc2)ccc1S(=O)(=O)Nc1cccc(C(F)(F)F)c1` [Example 1.093], the concentration for half-maximal inhibition (IC50) is 0.75 to 2 µM.

For the compound `CCOc1cc(NC(=O)C(C)c2ccccc2)ccc1S(=O)(=O)Nc1cccc(OC(F)(F)F)c1` (centres unmarked) [Example 1.064], the 50% inhibitory concentration (IC50) was ≤ 0.2 µM.

With `CCOc1cc(NC(=O)C(O)c2ccc(Br)cc2)ccc1S(=O)(=O)Nc1cccc(OC(F)(F)F)c1` (centres unmarked) [Example 1.564], the 50% inhibitory concentration (IC50) was in the range of 0.2 to 0.75 µM.

As for `CCOc1cc(NC(=O)c2cccc(=O)n2C)ccc1S(=O)(=O)Nc1cccc(OC(F)(F)F)c1` [Example 1.037], the IC50 lay within 0.2 to 0.75 µM.

With `Cc1cc(NC(=O)[C@H]2CCOC[C@H]2C)ccc1S(=O)(=O)Nc1cccc(C(F)(F)F)c1` (racemic) [Example 1.483], the IC50 was 0.2 to 0.75 µM.

As to `COc1cc(NC(=O)[C@@H]2CCC[C@H]2N)ccc1S(=O)(=O)Nc1cccc(C(F)(F)F)c1` [Example 1.392], the half-maximal inhibitory concentration (IC50) is 2 to 20 µM.

With `Cc1cc(NC(=O)c2ccno2)ccc1S(=O)(=O)Nc1cccc(C(F)(F)F)c1` [Example 1.067], the IC50 fell in the range of 0.2 to 0.75 µM.

`CCOc1cc(NC(=O)[C@@H](CO)c2ccccc2)ccc1S(=O)(=O)Nc1cccc(OC(C)C)c1` [Example 1.119]: the concentration for half-maximal inhibition (IC50) lay within 0.2 to 0.75 µM.

`COc1cc(NC(=O)c2ccnn2C)ccc1S(=O)(=O)Nc1ccc(C(F)(F)F)cc1` [Example 1.224]: the IC50 lay within 0.2 to 0.75 µM.

Take `CCOc1cc(NC(=O)[C@@H](CO)C(C)C)ccc1S(=O)(=O)Nc1ccc(C(F)(F)F)cc1` [Example 1.558]: the half-maximal inhibitory concentration (IC50) was in the range of 0.2 to 0.75 µM.

With `CCOc1cc(NC(=O)C(O)Cc2ccccc2)ccc1S(=O)(=O)Nc1cccc(OC(F)(F)F)c1` (centres unmarked) [Example 1.182], the IC50 is ≤ 0.2 µM.

Take `CCOc1cc(NC(=O)[C@@H](O)C(C)C)ccc1S(=O)(=O)Nc1cccc(C(F)(F)F)c1F` [Example 1.075]: the IC50 fell in the range of 2 to 20 µM.

As to `C=CC(=O)Nc1ccc(S(=O)(=O)Nc2cccc(OC(F)(F)F)c2)c(OCC)c1` [Example 1.583], the half-maximal inhibitory concentration (IC50) lay in the range of 0.2 to 0.75 µM.

On to `COc1ccccc1C(=O)Nc1ccc(S(=O)(=O)Nc2cccc(C(F)(F)F)c2)c(OC)c1` [Example 1.294], for which the 50% inhibitory concentration (IC50) was in the range of 2 to 20 µM.

Consider `CCc1cc(C(=O)Nc2ccc(S(=O)(=O)Nc3cccc(C(F)(F)F)c3)c(OC)c2)n(C)n1` [Example 1.027], for which the IC50 was in the range of 0.75 to 2 µM.

Take `CC(=O)Nc1ccc(S(=O)(=O)Nc2cccc(C(F)(F)F)c2)c(OC(F)(F)F)c1` [Example 1.264]: the IC50 fell in the range of 2 to 20 µM.

For the compound `Cc1cc(NC(=O)C2CCN(C(=O)OC(C)(C)C)CC2)ccc1S(=O)(=O)Nc1cccc(C(F)(F)F)c1` [Example 1.365], the IC50 fell in the range of 2 to 20 µM.

`CCOc1cc(NC(=O)[C@@H](O)c2ccccc2)ccc1S(=O)(=O)Nc1ccc(C2CC2)c(OC(F)(F)F)c1` [Example 1.556]: the IC50 was in the range of 0.2 to 0.75 µM.

In the case of `COc1cc(NC(=O)c2ccnn2C)ccc1S(=O)(=O)Nc1cc(OC(F)(F)F)ccc1F` [Example 1.448], the IC50 lay within 0.2 to 0.75 µM.

For `Cc1cc(NC(=O)CN(C)C)ccc1S(=O)(=O)Nc1cccc(C(F)(F)F)c1` [Example 1.553], the half-maximal inhibitory concentration (IC50) fell in the range of 2 to 20 µM.

In the case of `COc1cc(NC(=O)[C@@H](CO)C(C)C)ccc1S(=O)(=O)Nc1cccc(C(F)(F)F)c1` [Example 1.460], the IC50 is ≤ 0.2 µM.

As for `CC(=O)Nc1cc(C)c(S(=O)(=O)Nc2cccc(C(F)(F)F)c2)c(C)c1` [Example 1.490], the half-inhibitory concentration (IC50) was 2 to 20 µM.

Turning to `COc1cc(NC(=O)C2CCC(O)CC2)ccc1S(=O)(=O)Nc1cccc(C(F)(F)F)c1` (centres unmarked) [Example 1.140], the IC50 is 2 to 20 µM.

Regarding `CCOc1cc(NC(=O)C(O)C(C)O)ccc1S(=O)(=O)Nc1cccc(OC(F)(F)F)c1` (centres unmarked) [Example 1.164], the IC50 fell in the range of 0.75 to 2 µM.

`CCOc1cc(NC(=O)[C@@H](O)C(C)(C)C)ccc1S(=O)(=O)Nc1cccc(OC(F)(F)F)c1` [Example 1.577]: the IC50 was ≤ 0.2 µM.

Turning to `CCOc1cc(NC(=O)[C@@H](O)C(C)C)ccc1S(=O)(=O)Nc1cccc(OC(F)(F)F)c1C` [Example 1.267], the IC50 is 2 to 20 µM.

As to `CCc1cc(NC(=O)C2CCOCC2)ccc1S(=O)(=O)Nc1cccc(OC(F)(F)F)c1` [Example 1.056], the IC50 was ≤ 0.2 µM.

For `COc1cc(NC(=O)[C@H]2CC[C@H](OC)CC2)ccc1S(=O)(=O)Nc1cccc(C(F)(F)F)c1` [Example 1.051], the half-maximal inhibitory concentration (IC50) fell in the range of 2 to 20 µM.

On to `CCOc1cc(NC(=O)[C@@H](CO)c2ccccc2)ccc1S(=O)(=O)Nc1cccc(C2CC2)c1` [Example 1.080], for which the IC50 is ≤ 0.2 µM.

Regarding `CCOc1cc(NC(=O)[C@@H](N)c2ccccc2)ccc1S(=O)(=O)Nc1ccc(Cl)c(OC(F)(F)F)c1` [Example 1.234], the IC50 is ≤ 0.2 µM.

With `CCOc1cc(NC(=O)[C@@H](O)c2ccccc2)ccc1S(=O)(=O)Nc1ccc(Cl)c(OC(F)(F)F)c1` [Example 1.262], the concentration for half-maximal inhibition (IC50) was ≤ 0.2 µM.

Regarding `CCOc1cc(NC(=O)[C@@H]2CC=CC[C@H]2O)ccc1S(=O)(=O)Nc1cccc(OC(F)(F)F)c1` [Example 1.505], the half-maximal inhibitory concentration (IC50) was ≤ 0.2 µM.

Turning to `CCOc1cc(NC(=O)[C@H]2CCOC[C@@H]2CC)ccc1S(=O)(=O)Nc1cccc(OC(F)(F)F)c1` (racemic) [Example 1.065], the IC50 was ≤ 0.2 µM.

In the case of `Cc1cc(NC(=O)c2cccnc2C)ccc1S(=O)(=O)Nc1cccc(C(F)(F)F)c1` [Example 1.306], the IC50 was in the range of 0.75 to 2 µM.

As to `CC(C)[C@H](O)C(=O)Nc1ccc(S(=O)(=O)Nc2cccc(OC(F)(F)F)c2)c(Cl)c1` [Example 1.078], the 50% inhibitory concentration (IC50) was ≤ 0.2 µM.

As to `CC(C)[C@H](CO)C(=O)Nc1ccc(S(=O)(=O)Nc2cccc(OC(F)(F)F)c2)c(Cl)c1` [Example 1.085], the IC50 is ≤ 0.2 µM.

Turning to `CCOC(=O)[C@H]1CC=CC[C@@H]1C(=O)Nc1ccc(S(=O)(=O)Nc2cccc(OC(F)(F)F)c2)c(OCC)c1` [Example 1.138], the IC50 was ≤ 0.2 µM.

Regarding `CCOc1cc(NC(=O)[C@H]2CCOC[C@H]2O)ccc1S(=O)(=O)Nc1cccc(OC(F)(F)F)c1` (racemic) [Example 1.107], the half-inhibitory concentration (IC50) was 0.2 to 0.75 µM.

On to `Cc1cc(NC(=O)c2ccnn2C)ccc1S(=O)(=O)Nc1cccc(C(F)(F)F)c1` [Example 1.036], for which the IC50 was ≤ 0.2 µM.

Turning to `Cc1cc(NC(=O)[C@@H](CO)c2ccccc2)ccc1S(=O)(=O)Nc1cccc(C(F)(F)F)c1` [Example 1.459], the half-maximal inhibitory concentration (IC50) lay in the range of 0.75 to 2 µM.

As to `COc1cc(NC(=O)[C@@H](O)C(C)C)ccc1S(=O)(=O)Nc1ccc(C)c(C(F)(F)F)c1` [Example 1.369], the concentration for half-maximal inhibition (IC50) is 0.2 to 0.75 µM.

For `Cc1cc(NC(=O)c2cncs2)ccc1S(=O)(=O)Nc1cccc(C(F)(F)F)c1` [Example 1.501], the IC50 fell in the range of 0.2 to 0.75 µM.

Take `CCOc1cc(NC(=O)C(O)[C@@H](C)CC)ccc1S(=O)(=O)Nc1cccc(C(F)(F)F)c1` (some centres unmarked) [Example 1.390]: the 50% inhibitory concentration (IC50) was ≤ 0.2 µM.
